Results from the supplement of paper PMC10307832.

Experiments:
Assay in all cases: relative viability (nuclei count vs DMSO), 5 days (fraction); higher = more cells survive
Bexarotene + Foretinib = compound: C=C(c1ccc(C(=O)O)cc1)c1cc2c(cc1C)C(C)(C)CCC2(C)C [Bexarotene] + COc1cc2c(Oc3ccc(NC(=O)C4(C(=O)Nc5ccc(F)cc5)CC4)cc3F)ccnc2cc1OCCCN1CCOCC1 [Foretinib] (partner 0.25 µM)
Summary of the method: (§1)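 The day after seeding in 1536-well plates, lung cancer cell lines were treated by pin tool with a single drug, or with a fixed anchor-drug dose together with five library-drug doses (not always all listed) in √10 steps. After 5 days, a combined fix-and-stain solution (final 0.05% Triton X-100, 1% formaldehyde, 1 ug/ml Hoechst) was added. Nuclei counted on 4× images gave relative viability as treated counts over vehicle counts, reported as the median of duplicate plates.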

Bexarotene + AZD7762 = compound: C=C(c1ccc(C(=O)O)cc1)c1cc2c(cc1C)C(C)(C)CCC2(C)C [Bexarotene] + NC(=O)Nc1cc(-c2cccc(F)c2)sc1C(=O)N[C@H]1CCCNC1 [AZD7762] (partner 0.2 µM)
Summary of the method: as §1

Bexarotene + Luminespib = compound: C=C(c1ccc(C(=O)O)cc1)c1cc2c(cc1C)C(C)(C)CCC2(C)C [Bexarotene] + CCNC(=O)c1noc(-c2cc(C(C)C)c(O)cc2O)c1-c1ccc(CN2CCOCC2)cc1 [Luminespib] (partner 0.01 µM)
Summary of the method: as §1

Bexarotene + Tozasertib = compound: C=C(c1ccc(C(=O)O)cc1)c1cc2c(cc1C)C(C)(C)CCC2(C)C [Bexarotene] + Cc1cc(Nc2cc(N3CCN(C)CC3)nc(Sc3ccc(NC(=O)C4CC4)cc3)n2)n[nH]1 [Tozasertib] (partner 0.1 µM)
Summary of the method: as §1

Cell Line | relative viability (Bexarotene + Foretinib; first compound 0.08 µM) | relative viability (Bexarotene + Foretinib; first compound 0.253 µM) | relative viability (Bexarotene + Foretinib; first compound 0.8 µM) | relative viability (Bexarotene + Foretinib; first compound 2.53 µM) | relative viability (Bexarotene + Foretinib; first compound 8 µM) | relative viability (Bexarotene + AZD7762; first compound 0.08 µM) | relative viability (Bexarotene + AZD7762; first compound 0.253 µM) | relative viability (Bexarotene + AZD7762; first compound 0.8 µM) | relative viability (Bexarotene + AZD7762; first compound 2.53 µM) | relative viability (Bexarotene + AZD7762; first compound 8 µM) | relative viability (Bexarotene + Luminespib; first compound 0.08 µM) | relative viability (Bexarotene + Luminespib; first compound 0.253 µM) | relative viability (Bexarotene + Luminespib; first compound 0.8 µM) | relative viability (Bexarotene + Luminespib; first compound 2.53 µM) | relative viability (Bexarotene + Luminespib; first compound 8 µM) | relative viability (Bexarotene + Tozasertib; first compound 0.08 µM) | relative viability (Bexarotene + Tozasertib; first compound 0.253 µM) | relative viability (Bexarotene + Tozasertib; first compound 0.8 µM) | relative viability (Bexarotene + Tozasertib; first compound 2.53 µM) | relative viability (Bexarotene + Tozasertib; first compound 8 µM)
NCI-H1703 | 0.393 | 0.377 | 0.411 | 0.399 | 0.42 | 0.157 | 0.128 | 0.127 | 0.115 | 0.119 |  |  |  |  |  |  |  |  |  | 
NCI-H1792 |  |  |  |  |  | 0.64 | 0.572 | 0.526 | 0.593 | 0.526 | 0.519 | 0.406 | 0.49 | 0.361 | 0.286 |  |  |  |  | 
NCI-H2009 | 1.33 | 1.34 | 1.24 | 1.29 | 1.19 |  |  |  |  |  | 1.19 | 1.18 | 1.12 | 1.2 | 1.02 | 0.753 | 0.897 | 0.814 | 0.815 | 0.778
NCI-H2023 | 0.841 | 0.799 | 0.899 | 0.775 | 0.68 |  |  |  |  |  | 0.903 | 0.86 | 0.618 | 0.568 | 0.547 | 0.395 | 0.385 | 0.417 | 0.328 | 0.283
NCI-H2228 | 0.971 | 1.08 | 0.698 | 0.897 | 0.837 |  |  |  |  |  | 0.186 | 0.121 | 0.145 | 0.145 | 0.132 | 0.241 | 0.262 | 0.226 | 0.205 | 0.229
SK-LU-1 | 0.785 | 0.898 |  | 0.791 | 0.762 |  |  |  |  |  | 0.201 | 0.188 |  | 0.177 | 0.173 | 0.284 | 0.346 |  | 0.358 | 0.321
SK-MES-1 | 1.1 | 0.959 | 1.02 | 1.03 | 0.866 |  |  |  |  |  | 0.923 | 0.989 | 0.803 | 0.742 | 0.64 | 0.907 | 0.95 | 0.784 | 0.832 | 0.573
SW 1573 | 1.02 | 0.831 | 0.661 | 0.669 | 0.666 |  |  |  |  |  | 0.252 | 0.216 | 0.222 | 0.615 | 0.242 | 0.219 | 0.171 | 0.251 | 0.162 | 0.224
UMC-11 | 1.1 | 1.01 | 0.946 | 1.07 | 0.956 |  |  |  |  |  | 1.04 | 0.983 | 0.866 | 0.911 | 0.969 | 0.224 | 0.202 | 0.202 | 0.21 | 0.221
